Experimental findings from publication PMC13327620, “A Deep‐Red‐Absorbing Osmium(II) Complex as a Photosensitizer for Photodynamic Therapy Inducing Immunogenic Cell Death” (Angewandte Chemie (International Ed. in English), 2026) are described below.

Experiment [1] deals with mouse fibroblast cells (NIH/3T3). Description: Resazurin cell viability assay, dark toxicity. The format is cell-based. The note with it: NIH3T3, NIH/3T3, dark. The procedure: (§1) (100 U ml−1), streptomycin (100 U ml−1), and 1% L-glutamine. The murine fibrosarcom a (MCA205) cells were cultured in RPMI 1640 medium with 10% fetal bovine serum (FBS), penicillin (100 U ml−1), streptomycin (100 U ml−1), and 1% L-glutamine. All cells were incubated at 37 °C in a humidified atmosphere with 5 % CO2.
(§2) Normoxia. The in vitro viability of cells exposed to the complexes was determined using a resazurin assay. C ells were seeded in 96-well plates at densities of 4,000 cells/well for CT26, MC A205 and U-87 MG cells, and 8,000 cells/well for MRC-5 and NIH/3T3 cells. A fter 24 h of growth at 37 °C wit h 5% CO2, the medium was replaced with fresh medium containing various concentrations of the compounds . Following a 4- h incubation in the dark, the medium was refres hed , and the plates were exposed to irradiation usinga LUM OS -BIO photoreactor (At las Photonics).N on- ir rad iated plates were similarly refr eshed with medium and kept in the dark for the same duration. After a 40- h r ecov ery period, a f reshly pr epar ed resazurin solution (0.2 mg/mL) was added to each well, and the plates were left in the dark for 4 h before analysis on a B i o Te k Cytation 5 Cell Imaging Multimode Reader (Agil ent Technologies).
(§3) Hypoxia.Hypoxia cells were from well -grown normoxia cells and cultured for at least two weeks before use. […]
For orientation: Alamar Blue is a resazurin reagent that responds to reducing activity.

The subject of experiment [2] is human fibroblast cells (MRC-5). Description: Resazurin cell viability assay, dark toxicity. Format: cell-based. The note with it: MRC5, MRC-5, dark. How it is done:
as §1, §2, §3

For experiment [3], the system named is immune cells in the spleens. Description: Flow cytometry analysis of immune cells in spleens after vaccination. The format is in vivo, BALB/c mice. Conditions: spleen, 7 days after vaccination. The source says:
Encouraged by the excellent performance of Os2 in inducing ICD both in vitro and in vivo, we decided to further evaluate the antitumor immune response following vaccination. A key feature of ICD is its ability to initiate antigen‐specific adaptive immune responses. To assess this, we measured the immune cell response in the spleens and the cytokine levels in the serum of mice 7 days after vaccination (Figures 6A and S28).
The BALB/c female mice were randomly divided into 4 groups which were named as Control group, Cisplatin group, Ce6 group and Os2 group. CT26-luc cells were tre ated in vitro with 600 µM Cisplatin in the dark, 6.5 µ M Ce6 or 1.8 µM Os2 upon 740 nm LED light irradiation (60 min, 12.6 J cm-2) following the methods described above. […]
The BALB/c female mice were randomly divided into 4 groups with each group containing 3 mice, which were named as Control group, Cisplatin group, Ce6 group and Os2 group. […] For surfac e marker analysis, the cells were stained with fluorescence- l abeled anti-C D45-AF532 (Thermo Fisher Scientific Inc., Catalog no. 58- 0451- 80, clone 30-F 11 ), anti-CD3- […]
Serum samples were obt ained from the mice on day 7 after treatment. Cytokine was detected using ELISA kits according to the manufacturer ’s instructions: IFN-γ (Biolegend, Catalog no. 430807) and IL -17A ( Bi olegend, Catalog no.432507). […]
A general note: In flow cytometry, cells or beads pass a laser one at a time.

As a reminder, the IC50 is the concentration needed to halve the response being measured. On to `C=Cc1c(C)c2cc3nc(c(CC(=O)O)c4[nH]c(cc5nc(cc1[nH]2)C(C)=C5CC)c(C)c4C(=O)O)[C@@H](CCC(=O)O)[C@@H]3C` [Ce6, chlorin e6], for which the IC50 in experiment [1] was more than 100 µM. This compound registered an IC50 in experiment [2] of more than 100 µM. Besides, in experiment [3], the “Activated CD8^+ T cells, times that of Control and Cisplatin groups” value was “around twice higher”; the “Cytotoxic CD8^+ T cells, times higher than Control and Cisplatin groups” value is listed as “more than 10”.
